Assay results: patent publication US11478474B2, “2-(3′-(hydroxymethyl)-1-methyl-5-((5-(2-methyl-4-(oxetan-3-yl)piperazin-1-yl)pyridin-2-yl)amino)-6-oxo-1,6-dihydro-[3,4′-bipyridin]-2′-yl)-7,7-dimethyl-7,8-dihydro-2H-cyclopenta[4,5]pyrrolo[1,2-a]pyrazin-1(6H)-one as a BTK inhibitor” (HUTCHISON MEDIPHARMA LIMITED, priority 2020, dated 2022)
Like-named read-outs stand apart in the source and are kept apart here.

Columns and labels:
[1] = system: collagen induced arthritis in rats; assay: Rat arthritis model induced by type II collagen (CIA), paw volume; assay type: in vivo; details: CIA Lewis rats
Procedure: Example 9 Therapeutic Effect of the Compound of the Present Invention on a Rat Arthritis Model Induced by Type II Collagen
An appropriate amount of bovine type II collagen (CII, Chondrex (Redmond, Wash., USA), Cat #20021) was weighed and dissolved in 0.1 mole of acetic acid (SPGC Sinopharm Chemical Reagent Co., Ltd (Shanghai, P. R. China), Cat #: 10000218.), which was formulated into a solution with a concentration of 6 mg/mL, stirred at 4° C. overnight, and added with an equal volume of Freund's incomplete adjuvant (Sigma-Aldrich. (St. Louis, Mo., USA), Cat #: SLBW0366.), fully emulsified to prepare an emulsion with a CII concentration of 3 mg/mL.
Female Lewis rats were purchased from Beijing Vital River Laboratory Animal Technology Co., Ltd (certificate number 1100111911070522, initial body weight of 110-130 grams), and 3 rats were randomly selected as normal group, and the remaining rats were grouped according to the following table. In the first immunization on day 0, the rats except that in the normal group were anesthetized with isoflurane (Hebei Yipin Pharmaceutical Co., Ltd., Lot: C002170601.), and then disinfected with 75% alcohol. 0.2 mL of emulsion was injected intradermally at the base of the tail thereof. A second challenge was carried out on day 7, and 0.2 mL of emulsion was intradermally injected using the same method.
The paw volume was measured on day 8 after immunization, and the left and right hind paw volumes (V) were measured every day after the paw volume increase was detected.
The average arthrosis paw volume of each animal before administration was used as the baseline (or considered 100% inhibition of inflammation). The averaged paw swelling (APS) of each animal is calculated according to the following formula, wherein, APVd1 is the average paw volume of the animal administered on day 1, and APVdt is the average paw volume of the animal administered on day t: The averaged paw swelling APSdt=(APVdt−APVd1)
ED50 is calculated by XLfit software according to the AUC inhibition ratio of the area under the curve of the average paw volume change. The selected model is “log (inhibitor) vs. response−Variable slope”: […]

[2] = Study on in vivo pharmacokinetics in mice; details: 10 mg/kg
Description: Example 6 Study on In Vivo Pharmacokinetics in Mice
Solutol HS15 was purchased from BASF, Germany, ethanol (anhydrous) was purchased from Nanjing Chemical Reagent Co., Ltd., physiological saline was purchased from Huayu (Wuxi) Pharmaceutical Co., Ltd., dimethyl sulfoxide (DMSO) and sodium carboxymethyl cellulose 800-1200 (CMC-Na) were purchased from Sinopharm Chemical Reagent Co., Ltd.
Preparation of ethanol/Solutol mixed solution (1:1, v/v): taking an appropriate amount of Solutol HS15 in a centrifuge tube and placing in a 37° C. water bath until dissolved, placing on the bench top to room temperature, taking 1 mL of Solutol in a centrifuge tube containing 1 mL of ethanol and mixing well to obtain the mixed solution.
Taking an appropriate amount of stock solution and placing in a blank centrifuge tube, adding an appropriate amount of ethanol/Solutol mixed solution prepared in advance, vortexing, then adding an appropriate amount of physiological saline, and mixing well until a transparent liquid.
3. Administration to Animals and Sample Collection:
Male ICR mice were purchased from Shanghai Lingchang Biotechnology Co., Ltd. 18 mice were randomly divided into intravenous administration group and intragastric administration group. The mice were fasted overnight before administration. The mice were withheld food but allowed to access water freely within 4 hours after administration, and allowed to freely access food and water after 4 hours. After anesthesia with isoflurane, blood was collected from the retroorbital venous plexus and placing in an centrifuge tube containing anticoagulant, and the centrifuge tube was stored in an box containing wet ice until the plasma was centrifuged.
The plasma samples were pre-treated and then analyzed by liquid chromatography-tandem mass spectrometry (LC-MS/MS), the instrument model was API5500. The analytical chromatographic column was Waters XSELECT HSS T3 C18 column (50×2.1 mm, 2.5 μm). In the mobile phases, deionized water containing 0.1% formic acid and 0.1% acetonitrile was used as the aqueous phase and acetonitrile containing 0.1% formic acid was used as the organic phase. The concentrations of the compound in the samples were determined as follows. Firstly, a standard curve was established, and the peak area ratios of the compound 19 to the internal standard in the standard curve were used as indexes. The theoretical concentrations of compound 19 and the peak area ratios of compound 19 to the internal standard were fitted with a quadratic regression equation to obtain the regression equation. The sample concentrations were calculated by measuring the peak area ratio of the compound of the test sample to the internal standard according to the standard curve.

[3] = system: TMD8 subcutaneous xenograft (human diffuse large B-cell lymphoma cells); assay: In vivo efficacy in TMD8 subcutaneous xenograft model in nude mice; details: for Number of animals with CR (Day 21): 8 animals per group; for Tumor volume (mm^3) ± SD Day 0: Day 0, before drug administration; for TGI (%) / Tumor volume (mm^3) ± SD Day 21: Day 21; for RBW (%) (Day 21): relative body weight; for Tumor growth inhibition (TGI %): oral gavage once a day, 21 days after treatment, vs vehicle control
Procedure: Example 7 Evaluation of In Vivo Efficacy of the Compound of the Present Invention in TMD8 Subcutaneous Xenograft Model
Objects: To investigate the anti-tumor activity of compound 19 in TMD8 subcutaneous xenograft model in nude mice.
Methods: Human diffuse large B-cell lymphoma cells TMD8 (acquired under license from Tokyo Medical and Dental University) were cultured in RPMI1640 medium containing 10% fetal bovine serum. 1×10^7 tumor cells suspended in RPMI1640 medium mixed well with Matrigel (purchased from Corning, USA) at 1:1 were implanted subcutaneously on the right flank of each male Balb/c nude mouse (Shanghai Lingchang Biotechnology Co., Ltd.), pretreated with cyclophosphamide (at a dose of 200 mg/kg, intraperitoneal injection 24 h before cell inoculation). […] All drugs were administered by oral gavage, once a day, and the vehicle control group was administered orally with 0.5% hydroxypropyl methylcellulose solution (pH=3).
Tumor volumes (tumor volume=0.5×long diameter×short diameter^2) and body weights of the mice were measured regularly. The tumor volume change and body weight were statistically analyzed, with p<0.05 considered statistically significant, and p<0.01 as extremely statistically significant.
The anti-tumor activity was evaluated by tumor growth inhibition. Tumor growth inhibition (TGI %)=100%×(1−(TVDt (treatment group)−TVD0 (treatment group))/(TVDt (control group)−TVD0 (control group))) Relative body weight (RBW %)=BWDt/BWD0×100%
wherein, TVD0 represents the tumor volume obtained at first measurement, namely, the tumor volume before drug administration, and TVDt represents the tumor volume on the day of measurement; BWD0 represents the body weight of the animal obtained at first measurement, namely, the body weight of the animal before drug administration; BWDt represents the body weight of the animal on the day of measurement.

[4] = oral QD, from AUC inhibition ratio of average paw volume change
[5] = male ICR mice, oral (intragastric) administration, plasma
[6] = male ICR mice, oral (intragastric) administration, plasma, 24 h
[7] = mouse, male ICR mice, oral (intragastric) administration, plasma
[8] = mouse, male ICR mice, oral (intragastric) administration, plasma, read-out: Cmax
[9] = 10 mg/kg oral gavage once a day
[10] = 30 mg/kg oral gavage once a day

Structure (SMILES)	inhibition ratio of area under the curve (paw swelling) ([1]; 4 mg/kg QD oral) [%]	Cmax [2, 5] [ng/mL]	C24 h (plasma concentration at 24 h) [2, 6] [ng/mL]	AUC(0-inf) [2, 7] [ng·h/mL]	half-life [2, 7] [h]	Cmax [2, 8] [ng/mL]	Number of animals with CR (Day 21) [3, 9]	Tumor volume (mm^3) ± SD Day 0 [3, 9] [mm^3]	TGI (%) [3, 9] [%]	Tumor volume (mm^3) ± SD Day 21 [3, 9] [mm^3]	RBW (%) (Day 21) [3, 9]	Tumor growth inhibition (TGI %) ([3]; 10 mg/kg) [%]	also measured
C[C@H]1CN(C2COC2)CCN1c1ccc(Nc2cc(-c3ccnc(-n4ccn5c6c(cc5c4=O)CC(C)(C)C6)c3CO)cn(C)c2=O)nc1 [Compound 19]	93.2	3807	8.5	17800	2.7	3810	0	400 ± 41	76.5	1065	111.0	76.5	inhibition ratio of area under the curve (paw swelling) ([1]; 0.06 mg/kg QD oral): 58.8%; inhibition ratio of area under the curve (paw swelling) ([1]; 0.25 mg/kg QD oral): 91.3%; inhibition ratio of area under the curve (paw swelling) ([1]; 1 mg/kg QD oral): 95.9%; inhibition ratio of area under the curve (paw swelling) ([1]; 16 mg/kg QD oral): 97.5%; ED50 [1, 4]: < 0.06 mg/kg/day; ED90 [1, 4]: 0.26 mg/kg; minimum effective dose ([1]; oral QD, paw swelling): 0.06 mg/kg/day; C8 h (plasma concentration at 8 h) ([2]; male ICR mice, oral (intragastric) administration, plasma, 8 h): 555 ng/mL; plasma exposure (AUC0-∞) relative to the reference GDC-0853 ([2]; mice, oral administration): about 1.7 times; plasma concentration at 8 h relative to GDC-0853 ([2]; mice, oral administration, 8 h): about 3.9 folds; Number of animals with CR (Day 21) [3, 10]: 8; Tumor volume (mm^3) ± SD Day 0 [3, 10]: 396 ± 47 mm^3; TGI (%) [3, 10]: 114%; Tumor volume (mm^3) ± SD Day 21 [3, 10]: 0 mm^3; RBW (%) (Day 21) [3, 10]: 109.8%; Tumor growth inhibition (TGI %) ([3]; 30 mg/kg): 114%; mice with complete tumor regression (CR) ([3]; 30 mg/kg, oral once a day, Day 21, 8 animals per group): 8 mice
C[C@H]1CN(C2COC2)CCN1c1ccc(Nc2cc(-c3ccnc(N4CCn5c(cc6c5CC(C)(C)C6)C4=O)c3CO)cn(C)c2=O)nc1 [GDC-0853, fenebrutinib, reference compound]	87.1	4063	<2.4	10300	1.5	4060	0	397 ± 46	−12.8	3585 ± 494	115.5	−12.8	paw volume compared with the vehicle control group ([1]; 4 mg/kg QD oral, p<0.01): significantly reduced; concentration at 8 h ([2]; mouse, male ICR mice, oral (intragastric) administration, plasma, 8 h, read-out: C8 h (plasma concentration at 8 h)): 143 ng/mL; concentration at 24 h ([2]; mouse, male ICR mice, oral (intragastric) administration, plasma, 24 h, read-out: C24 h (plasma concentration at 24 h)): < 2.4 ng/mL
